pIC50: −log10 of the molar value.
Experiments:
[1] = target: T1, PRS (prolyl-tRNA synthetase) (Homo sapiens, UniProt P07814); assay: In vitro PRS enzyme activity inhibition experiment ([3H]proline, liquid scintillation); assay type: biochemical; settings: purified PRS protein subcloned from EPRS cDNA; 37° C., 5 to 10 minutes; read-out: PRS IC50
T1 construct: the portion corresponding to PRS in cDNA of EPRS was subcloned; made in house
T1 sequence (P07814 1007-1512 limits assumed): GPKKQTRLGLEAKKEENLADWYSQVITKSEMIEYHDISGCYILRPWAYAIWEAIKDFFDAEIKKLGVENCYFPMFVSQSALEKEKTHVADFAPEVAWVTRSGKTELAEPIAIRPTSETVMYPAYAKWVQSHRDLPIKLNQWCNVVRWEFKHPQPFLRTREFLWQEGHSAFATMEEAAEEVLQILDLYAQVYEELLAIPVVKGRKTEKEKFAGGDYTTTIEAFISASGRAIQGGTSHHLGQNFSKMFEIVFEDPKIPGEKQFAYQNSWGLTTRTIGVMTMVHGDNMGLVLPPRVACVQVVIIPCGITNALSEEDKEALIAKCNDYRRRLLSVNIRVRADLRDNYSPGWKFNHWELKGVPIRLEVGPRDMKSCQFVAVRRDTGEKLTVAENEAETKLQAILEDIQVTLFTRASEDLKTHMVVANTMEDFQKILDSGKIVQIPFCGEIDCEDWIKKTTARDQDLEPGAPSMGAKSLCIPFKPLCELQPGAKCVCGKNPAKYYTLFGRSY
Experimental: In order to confirm the biological activities of the compounds prepared in Examples, % inhibition or IC50 values of PRS enzyme ([…]) activities were calculated.
Specifically, the portion corresponding to PRS in cDNA of EPRS was subcloned, and the obtained high-purity PRS protein was purified and used in the experiment. The compounds (1 μM) prepared in Examples were added into the reaction buffer (20 mM KPO4 (pH 7.4), 6 mM MgAc, 5 mM ATP, […] tRNA, 0.5 mM DTT, 20 mCi[^3H]proline (1 mCi/mL)) and allowed to react at 37° C. for 5 to 10 minutes. The reaction was terminated with 3M paper that was previously dried by addition of 5% TCA. The radioactivity was measured using a liquid scintillation counter.
IC50 values of the respective compounds were calculated and analyzed using Microsoft Excel or Sigma Plot 8.0. In Table 1, the results are divided into A, B and C according to the range of IC50. The case where the derived IC50 is 100 nM or less is represented by “A”, the case where the IC50 is 100 to 500 nM is represented by “B”, and the case where the IC50 is 500 nM or higher is represented by “C”.

[2] = test system: NCI-H460 cells; assay: Cancer cell growth inhibition experiment (MTT assay); assay type: cell-based; settings: Homo sapiens; NCI-H460 lung cancer cell line; 48 hours treatment; MTT cell viability
Experimental: NCI-H460 cells, lung cancer cell lines, were cultured in 5% CO2, 37° C. incubator using a flask for 75 cm^2 tissue culture. 96-well plates were used for the evaluation. These were prepared by differently applying at concentrations in the range of 6,000 to 12,000 cells/well according to the growth rate of the cell lines. The medium containing 5% FBS were dispensed in 200 μL/well and used. The medium were cultured for 24 hours. After confirming the cell status and dispensing form of a 96-well plate under a microscope, they were used for subsequent experiments. The compounds were evaluated at concentrations of 100, 30, 10, 3, 1, 0.3, 0.03, 0.01 μM. After removing the existing medium, the compounds with various concentrations were treated in an amount of 200 μL/well. The compounds-treated plates were further cultured for 48 hours, and the cell viabilities were measured by MTT assay to calculate IC50 values.
% Inhibition and IC50 values of the respective compounds were calculated and analyzed using Sigma Plot 8.0. The case where the derived IC50 is 5 μM or less is represented by “A”, the case where the IC50 is 5 to 30 μM is represented by “B”, and the case where the IC50 is 30 μM or higher is represented by “C”.

SMILES	pIC50 [1]	pIC50 [2]
N#Cc1cnc2c(c1)ncn2CC(=O)C[C@H]1NCCC[C@@H]1O [Example 38, 3-(3-((2R,3S)-3-hydroxypiperidin-2-yl)-2-oxopropyl)-3H-imidazo[4,5-b]pyridine-6-carbonitrile]	6.30 to 7.00	≤ 4.52
O=C(C[C@H]1NCCC[C@@H]1O)Cn1cnc2cc(F)c(F)cc21 [Example 10, 1-(5,6-difluoro-1H-benzo[d]imidazol-1-yl)-3-((2R,3S)-3-hydroxypiperidin-2-yl)propan-2-one]	6.30 to 7.00	4.52 to 5.30
Cc1ccc2c(nc(CO)n2CC(=O)C[C@H]2NCCC[C@@H]2O)c1C [Example 62, 1-(2-(hydroxymethyl)-4,5-dimethyl-1H-benzo[d]imidazol-1-yl)-3-((2R,3S)-3-hydroxypiperidin-2-yl)propan-2-one]	< 6.30	≤ 4.52
O=C(C[C@H]1NCCC[C@@H]1O)Cn1cnc2ccc(Br)nc21 [Example 35, 1-(5-bromo-3H-imidazo[4,5-b]pyridin-3-yl)-3-((2R,3S)-3-hydroxypiperidin-2-yl)propan-2-one]	> 7.00	4.52 to 5.30
OC(C[C@H]1NCCC[C@@H]1O)Cn1cnc2ccccc21 (stereo partly drawn) [Example 69, (2R,3S)-2-(3-(1H-benzo[d]imidazol-1-yl)-2-hydroxypropyl)piperidin-3-ol]	< 6.30	≤ 4.52
O=C(C[C@H]1NCCC[C@@H]1O)Cn1cnc2ccc(C(F)(F)F)nc21 [Example 36, 1-((2R,3S)-3-hydroxypiperidin-2-yl)-3-(5-(trifluoromethyl)-3H-imidazo[4,5-b]pyridin-3-yl)propan-2-one]	> 7.00	4.52 to 5.30
O=C(C[C@H]1NCCC[C@@H]1O)Cn1cnc2cncc(Br)c21 [Example 33, 1-(7-bromo-1H-imidazo[4,5-c]pyridin-1-yl)-3-((2R,3S)-3-hydroxypiperidin-2-yl)propan-2-one]	> 7.00	4.52 to 5.30
COC(C[C@H]1NCCC[C@@H]1O)Cn1cnc2cc(Cl)c(Cl)cc21 (stereo partly drawn) [Example 83, (2R,3S)-2-(3-(5,6-dichloro-1H-benzo[d]imidazol-1-yl)-2-methoxypropyl)piperidin-3-ol]	< 6.30	≤ 4.52
Cc1cc(Cl)cc2c1ncn2CC(=O)C[C@H]1NCCC[C@@H]1O [Example 24, 1-(6-chloro-4-methyl-1H-benzo[d]imidazol-1-yl)-3-((2R,3S)-3-hydroxypiperidin-2-yl)propan-2-one]	> 7.00	4.52 to 5.30
Cc1c(Br)cnc2c1ncn2CC(=O)C[C@H]1NCCC[C@@H]1O [Example 40, 1-(6-bromo-7-methyl-3H-imidazo[4,5-b]pyridin-3-yl)-3-((2R,3S)-3-hydroxypiperidin-2-yl)propan-2-one]	> 7.00	≥ 5.30
O=C(C[C@H]1NCCC[C@@H]1O)Cn1c(CO)nc2cc(Br)ccc21 [Example 57, 1-(5-bromo-2-(hydroxymethyl)-1H-benzo[d]imidazol-1-yl)-3-((2R,3S)-3-hydroxypiperidin-2-yl)propan-2-one]	6.30 to 7.00	4.52 to 5.30
O=C(C[C@H]1NCCC[C@@H]1O)Cn1ccc2ccnc(Cl)c21 [Example 93, 1-(7-chloro-1H-pyrrolo[2,3-c]pyridin-1-yl)-3-((2R,3S)-3-hydroxypiperidin-2-yl)propan-2-one]	6.30 to 7.00	≤ 4.52
O=C(C[C@H]1NCCC[C@@H]1O)Cn1cnc2ccccc21 [Example 1, 1-(1H-benzo[d]imidazol-1-yl)-3-((2R,3S)-3-hydroxypiperidin-2-yl)propan-2-one]	< 6.30	≤ 4.52
O=C(C[C@H]1NCCC[C@@H]1O)Cn1cnc2c(Cl)c(F)ccc21 [Example 21, 1-(4-chloro-5-fluoro-1H-benzo[d]imidazol-1-yl)-3-((2R,3S)-3-hydroxypiperidin-2-yl)propan-2-one]	6.30 to 7.00	4.52 to 5.30
Cc1c(Cl)ccc2ncn(CC(=O)C[C@H]3NCCC[C@@H]3O)c12 [Example 28, 1-(6-chloro-7-methyl-1H-benzo[d]imidazol-1-yl)-3-((2R,3S)-3-hydroxypiperidin-2-yl)propan-2-one]	> 7.00	≤ 4.52
Cc1ccc2c(ncn2CC(=O)C[C@H]2NCCC[C@@H]2O)c1Br [Example 19, 1-(4-bromo-5-methyl-1H-benzo[d]imidazol-1-yl)-3-((2R,3S)-3-hydroxypiperidin-2-yl)propan-2-one]	> 7.00	4.52 to 5.30
NCc1nc2cc(Cl)c(Cl)cc2n1CC(=O)C[C@H]1NCCC[C@@H]1O [Example 52, 1-(2-(aminomethyl)-5,6-dichloro-1H-benzo[d]imidazol-1-yl)-3-((2R,3S)-3-hydroxypiperidin-2-yl)propan-2-one]	< 6.30	≤ 4.52
O=C(C[C@H]1NCCC[C@@H]1O)Cn1cnc2cnc(Cl)cc21 [Example 32, 1-(6-chloro-1H-imidazo[4,5-c]pyridin-1-yl)-3-((2R,3S)-3-hydroxypiperidin-2-yl)propan-2-one]	6.30 to 7.00	≤ 4.52
O=C(C[C@H]1NCCC[C@@H]1O)Cn1c(CO)nc2cc(OC(F)(F)F)ccc21 [Example 60, 1-(2-(hydroxymethyl)-5-(trifluoromethoxy)-1H-benzo[d]imidazol-1-yl)-3-((2R,3S)-3-hydroxypiperidin-2-yl)propan-2-one]	< 6.30	≤ 4.52
O=C(C[C@H]1NCCC[C@@H]1O)Cn1c(CO)nc2ccc(Br)cc21 [Example 58, 1-(6-bromo-2-(hydroxymethyl)-1H-benzo[d]imidazol-1-yl)-3-((2R,3S)-3-hydroxypiperidin-2-yl)propan-2-one]	> 7.00	4.52 to 5.30
O=C(C[C@H]1NCCC[C@@H]1O)Cn1cnc2cccc(C(F)(F)F)c21 [Example 8, 1-((2R,3S)-3-hydroxypiperidin-2-yl)-3-(7-(trifluoromethyl)-1H-benzo[d]imidazol-1-yl)propan-2-one]	> 7.00	4.52 to 5.30
O=C(C[C@H]1NCCC[C@@H]1O)Cn1c(C(F)(F)F)nc2cc(Cl)c(Cl)cc21 [Example 50, 1-(5,6-dichloro-2-(trifluoromethyl)-1H-benzo[d]imidazol-1-yl)-3-((2R,3S)-3-hydroxypiperidin-2-yl)propan-2-one]	< 6.30	≤ 4.52
CC(O)(C[C@H]1NCCC[C@@H]1O)Cn1cnc2cc(Cl)c(Cl)cc21 (stereo partly drawn) [Example 84, (2R,3S)-2-(3-(5,6-dichloro-1H-benzo[d]imidazol-1-yl)-2-hydroxy-2-methylpropyl)piperidin-3-ol]	< 6.30	≤ 4.52
O[C@H]1CCCN[C@@H]1CC(F)Cn1cnc2cc(Cl)c(Cl)cc21 (stereo partly drawn) [Example 81, (2R,3S)-2-(3-(5,6-dichloro-1H-benzo[d]imidazol-1-yl)-2-fluoropropyl)piperidin-3-ol]	< 6.30	≤ 4.52
O/N=C(/C[C@H]1NCCC[C@@H]1O)Cn1cnc2cc(Cl)c(Cl)cc21 [Example 64, 1-(5,6-dichloro-1H-benzo[d]imidazol-1-yl)-3-((2R,3S)-3-hydroxypiperidin-2-yl)propan-2-one oxime]	< 6.30	–
O=C(C[C@H]1NCCC[C@@H]1O)Cn1cnc2cccnc21 [Example 34, 1-((2R,3S)-3-hydroxypiperidin-2-yl)-3-(3H-imidazo[4,5-b]pyridin-3-yl)propan-2-one]	6.30 to 7.00	–
O/N=C(/C[C@H]1NCCC[C@@H]1O)Cn1cnc2ncc(Br)cc21 [Example 66, 1-(6-bromo-1H-imidazo[4,5-b]pyridin-1-yl)-3-((2R,3S)-3-hydroxypiperidin-2-yl)propan-2-one oxime]	< 6.30	–

Reference: patent publication US10081634B2, “Heterocyclic compound” (Daewoong Pharmaceutical Co., Ltd., priority 2014, dated 2018)
